Test results reported in patent publication US11434205B2, “Substituted imidazole carboxylate derivatives and the use thereof” (priority 2018, dated 2022).
Where two headings read alike, the source gives them in different places.

Experiments:
rats [1] = tested on: rats
Experimental: (§1) Adult male Sprague-Dawley rats (250-300 g) were selected for the experiment. […] The anesthesia effects of the compounds were assessed in rats using a LORR assay and a period >30 s was considered as an indicator of general anesthesia. Then the up and down method was used to determine 50% effective dose (ED50). The drugs were administered through the tail vein of rats in a volume of 0.6 mL and at a rate of 0.1 mL/s.

rats [2] = experiment: Pharmacological characteristics at equivalent doses (2×ED50) in rats; settings: 2×ED50, tail vein; for Adverse reactions: Red urine (incidence): DMSO solution (DMSO alone 10/10); for Onset time: time of LORR
Experimental: Comparison of Pharmacological Characteristics of the Compounds at Equivalent Doses (2×ED50) in Rats
Adult male Sprague-Dawley rats (250-300 g) were selected for the experiment (n=8). […] The drugs were administered at a dose twice their ED50 through the tail vein of rats in a volume of 0.6 mL and at a rate of 0.1 mL/s. In addition, the time of LORR was recorded as the onset time of anesthesia. […] Furthermore, the duration of the pharmacological effects is sufficient to meet the time requirements for rapid induction of general anesthesia and for diagnostic examinations, some short invasive clinical examinations, or operations.

rats [3] = experiment: Loss of righting reflexes (LORR) assay in rats, ED50 by up and down method; type: in vivo, rat; settings: Rattus norvegicus, tail vein, class symbols
Experimental: The Anesthetic Activity of the Compounds was Assessed in Rats Using a Loss of Righting Reflexes (LORR) Assay
as §1

rats [4] = tested on: rats; remark: listed apart in the source
Experimental: Pharmacological Effects of the Compounds on Continuous Infusion in Rats
Adult male Sprague-Dawley rats with body weight ranging from 250 to 300 gm were selected for continuous infusion test. […] Time to recovery of righting reflex from stopping infusion, and time to fully awake from stopping infusion were recorded.

rats [5] = type: in vivo, rat; settings: rats of the MAP/HR figures, 2×ED50, tail vein; same value in min
Experimental: The Effects of the Compounds on the Circulatory Function were Measured in Rats Using a Small Animal Implanted Physiological Signal Telemetry System
The anesthetic activity of the compounds was assessed in rats using a LORR assay and the up and down method was used to determine ED50. […] A small animal implantable physiological signal telemetry system from DSI (Data Science International, Inc.) was used to measure the changes in heart rate (HR) and blood pressure in rats during 30 min after administration. Then mean arterial pressure (MAP) and HR were used as representative indicators to determine hemodynamic stability of the compounds of the present invention in rats.
A small animal implantable physiological signal telemetry system from DSI (Data Science International, Inc.) including implants (RATHD-521, DSI, United States), receiver boards (RPC-1, DSI, United States), signal conversion devices (DEM, DSI, USA), perfusion glue (DSI, USA), fibrin membrane (DSI, USA), etc.
First, animal models were established. A left ventricular catheter, an abdominal aortic catheter and ECG wires were placed into rats. At least one week after surgery, data were recorded.
Administration procedure: rats were put into a restraint device with a 20 G indwelling catheter placed into a lateral tail vein. After administration of 0.2 mL heparin, a pre-filled extension tube was attached and taped to the tail vein to secure the extension tube. Then the rats were removed from the restraint device to a cage before placing them together on the signal receiver. […] Finally, the pharmacological effects, adverse reactions, and behavioural manifestations of the rats were observed and recorded
Data collection: After setting the data collection parameters on the software, the power of the implant was turned on to start data collection. In this experiment, data recording frequency was set to 15 s. Data collection was continuously recorded for 30 min before and after administration of the drugs in rats. After data acquisition, the test was stopped.

[6] = tested on: secretion of cortisol, H295R cell line; experiment: cells; type: cell-based; settings: for EC50: read-out: EC50 (Cortisol)
Experimental: (§2) The Effects of the Compounds on Adrenocortical Function In Vitro Test
(§3) Then secretion of the cortisol and corticosterone in the supernatant, was measured using HPLC-MS/MS method to determine whether the compounds of the present invention had adrenotoxic potential.

[7] = tested on: secretion of corticosterone, H295R cell line; experiment: cells; type: cell-based; settings: for EC50: read-out: EC50 (Corticosterone)
Experimental: as §2, §3

rats [8] = type: in vivo, rat; settings: rats of the MAP/HR figures, 2×ED50, tail vein
[9] = continuous tail vein infusion at 2×MIR, LORR maintained 1 hour, Table D4
[10] = H295R cell line, 0.1-10000 nM, HPLC-MS/MS, Table D3
[11] = emulsion, continuous infusion at 2×MIR
[12] = continuous tail vein infusion at 2×MIR, LORR maintained 1 hour, Table E4
[13] = H295R cell line, 0.1-10000 nM, HPLC-MS/MS, Table E3

Row | Structure (SMILES) | Approximate therapeutic index (rats [1]) | Minimal lethal dose (rats [1]) [mg/kg] | Righting reflex duration (rats [2]) [min] | Adverse reactions: Red urine (incidence) (rats [2]) | Onset time (rats [2]) [min] | ED50 (rats [3]) [mg/kg] | recovery time of the test animals' righting reflex (rats [5]) [min] | EC50 ([6]; Homo sapiens, NCI-H295R) [µM] | EC50 ([7]; Homo sapiens, NCI-H295R) [µM] | recovery time of the test animals' righting reflex (rats [8]) [s] | Cortisol as an indicator to determine the presence of inhibition [6, 13] | Corticosterone as an indicator to determine the presence of inhibition [7, 13] | further results
1 | C=CCC1(OC(=O)c2cncn2[C@H](C)c2ccccc2)CCC1 [Compound D12] | >14 | >10 | 2.15 ± 1.03 | Red urine (8/8) | 0.32 ± 0.09 | 0.5 to 1 |  |  |  |  |  |  | 
2 | C=CC(CC)(CC)OC(=O)c1cncn1[C@H](C)c1ccccc1 [Compound D24] | >13 | >7 | 0.80 ± 0.20 | Red urine (8/8) | 0.56 ± 0.31 | 0.5 to 1 |  |  |  |  |  |  | 
3 | CC#CC1(OC(=O)c2cncn2[C@H](C)c2ccccc2)CCSC1 (some centres unmarked) [Compound D30] | >11 | >5 | 1.32 ± 0.61 | urine (8/8) | 0.43 ± 0.22 | 0.5 to 1 |  |  |  |  |  |  | Adverse reactions: Myoclonus (incidence) (rats [2]): Myoclonus (2/8), Red
4 | C[C@H](c1ccccc1)n1cncc1C(=O)OC(C)(C)C#CC#CC(C)(C)O [Compound D38] |  |  |  |  |  |  | 3.22 | > 10 | > 10 | 193 |  |  | Onset time (rats [4]; [9]): 3 to 4 min; Recovery time after stopping infusion (rats [4]; [9]): 12 to 14 min; Types and incidence of adverse reactions (rats [4]; [9]): Tremor (5/6); Cortisol as an indicator to determine the presence of inhibition [6, 10]: 0; Corticosterone as an indicator to determine the presence of inhibition [7, 10]: 0
5 | CCCC1(COC(=O)c2cncn2[C@H](C)c2ccccc2)COC1 [Compound B10] |  |  |  |  |  |  | 1.35 | > 1 | > 1 | 81 |  |  | Recovery time after stopping infusion (rats [4]; after 1 hour infusion at 2×MIR): 9 to 12 min; Adverse reactions: Tremor (incidence) (rats [4]; continuous infusion 2×MIR): Tremor (3/6); Onset time (rats [4]; [11]): 3 to 4 min; Cortisol as an indicator to determine the presence of inhibition ([6]; H295R, Table B3): 0; Corticosterone as an indicator to determine the presence of inhibition ([7]; H295R, Table B3): 0
6 | C=C=CC1(OC(=O)c2c(F)ncn2[C@H](C)c2ccccc2)CCCCC1 [Compound E36] | >26 | >5 | 2.21 ± 1.86 | (8/8) | 0.49 ± 0.17 | 0.5 to 1 |  |  |  |  |  |  | 
7 | CCC1(OC(=O)c2cncn2[C@H](C)c2ccccc2)COC1 [Compound B18] |  |  |  |  |  |  | 4.65 | > 1 | > 1 | 279 |  |  | Recovery time after stopping infusion (rats [4]; after 1 hour infusion at 2×MIR): 15 to 18 min; Adverse reactions: Tremor (incidence) (rats [4]; continuous infusion 2×MIR): Tremor (4/6); Onset time (rats [4]; [11]): 3 to 4 min; Cortisol as an indicator to determine the presence of inhibition ([6]; H295R, Table B3): 0; Corticosterone as an indicator to determine the presence of inhibition ([7]; H295R, Table B3): 0
8 | CC#CC1(OC(=O)c2c(F)ncn2[C@H](C)c2ccccc2)CSC1 [Compound E91] | >6 | >20 | 1.24 ± 0.63 | (8/8) | 0.48 ± 0.21 | 0.5 to 1 |  |  |  |  |  |  | 
9 | C[C@H](c1ccccc1)n1cncc1C(=O)OC1(CC2CO2)COC1 (some centres unmarked) [Compound B22] | >10 | >17 | 1.24 ± 0.12 | 8/8 | 0.92 ± 0.14 | 0.5 to 1 |  |  |  |  |  |  | Adverse reactions: Tremor (incidence) (rats [2]; animals affected/animals): 4/8
10 | CC(OC(=O)c1c(F)ncn1C(C)c1ccccc1)=C1CCCC1=O (centres unmarked) [Compound E31] |  |  |  |  |  |  | 1.75 |  |  | 105 | 0 | 0 | Onset time (rats [4]; [12]): 3 to 4 min; Recovery time after stopping infusion (rats [4]; [12]): 8 to 11 min; Types and incidence of adverse reactions (rats [4]; [12]): Tremor (3/6); EC50 [6, 13]: > 10 µM; EC50 [7, 13]: > 10 µM
11 | COCC1(COC(=O)c2c(C(F)(F)F)ncn2[C@H](C)c2ccccc2)CCC1 [Compound E157] |  |  |  |  |  |  | 3.03 | > 10 | > 10 | 182 | 0 | 0 | 
12 | C=C=CC1(OC(=O)c2c(C(F)(F)F)ncn2[C@H](C)c2ccccc2)COC1 [Compound E163] |  |  |  |  |  |  | 1.58 |  |  | 95 | 0 | 0 | EC50 [6, 13]: > 10 µM; EC50 [7, 13]: > 10 µM
13 | C[C@H](c1ccccc1)n1cncc1C(=O)SCC1COC1 [Compound B29] |  |  |  |  |  |  | 1.87 | > 10 | > 10 | 112 |  |  | Recovery time after stopping infusion (rats [4]; after 1 hour infusion at 2×MIR): 8 to 10 min; Types and incidence of adverse reactions (rats [4]; continuous infusion 2×MIR, in words): No; Onset time (rats [4]; [11]): 2 to 3 min; Cortisol as an indicator to determine the presence of inhibition ([6]; H295R, Table B3): 0; Corticosterone as an indicator to determine the presence of inhibition ([7]; H295R, Table B3): 0
14 | C=C(OCC)C1(OC(=O)c2cncn2[C@H](C)c2ccccc2)COC1 [Compound D2] |  |  |  |  |  |  | 5.92 | > 1 | > 1 | 355 |  |  | Cortisol as an indicator to determine the presence of inhibition [6, 10]: 0; Corticosterone as an indicator to determine the presence of inhibition [7, 10]: 0
15 | CCOC(=O)c1c(C(F)(F)F)ncn1[C@H](C)c1ccccc1 [Compound E164] |  |  |  |  |  |  | 1.28 | > 10 | > 10 | 77 | 0 | 0 | 
16 | C[C@H](c1ccccc1)n1cnc(F)c1C(=O)OC(C)(C)C [Compound E12] |  |  |  |  |  |  | 3.57 | > 10 | > 10 | 214 | 0 | 0 | Onset time (rats [4]; [12]): 2 to 3 min; Recovery time after stopping infusion (rats [4]; [12]): 11 to 23 min; Types and incidence of adverse reactions (rats [4]; [12]): Tremor (2/6)
17 | CC#CCOC(=O)c1c(C(F)(F)F)ncn1[C@H](C)c1ccccc1 [Compound E161] |  |  |  |  |  |  | 2.33 | > 10 | > 10 | 140 | 0 | 0 | 
